Measured values reported in patent US20170028016A1, “METHODS OF TREATMENT OF C. DIFFICILE SPORES WITH RAMOPLANIN” (Nanotherapeutics, Inc., priority 2014, published 2017).
Entries after “also recorded” stand apart in the source; their conditions may differ.

Experiments:
[1] = test system: C. difficile spores (ribotype 027); assay: Antimicrobial survey: continuous exposure of spores in water for six days, spore counts by plating; details: 37 °C, D0-D6
[2] = test system: C. difficile spores (ribotype 027); assay: Dose-dependent sporicidal assay: spores exposed to ramoplanin, washed 6 times, plated on NaTBA; format: cell-based, Clostridium difficile
Method: C. difficile exposure at three levels of ramoplanin (2, 300, 600 μg/mL) and to water was evaluated. […] The wash supernatant fluids (n=6/level) and the final spore suspensions (n=1/level) were counted by plating three 10-fold serial dilutions on NaTaurocholate Blood Agar (NaTBA). Each set of three counts were averaged and compared by t-test.

[3] = test system: C. difficile spores (ribotype 027), exosporium; assay: Dependency of activity on exosporium: intact versus stripped (processed) spores exposed to ramoplanin; format: cell-based, Clostridium difficile
Method: C. difficile (027) exposure (30 min/37 C) to multiple doses of ramoplanin and to water was evaluated. Following ramoplanin exposure for 30 minutes, sampling occurred at days D0, D1, D7, D14, and D28. Without wishing to be bound by any particular theory, sampling over time may characterize the duration of effect having clinical implication on the duration of oral therapy. From each level at each time point, three aliquots were taken (i.e. n=3 for each subsequent assay) and each washed 6 times before the spore re-suspension. Each wash (100 only) and spore suspension (100, 10-1 10-2) were counted on NaTBA and assayed for ramoplanin by a zone of inhibition assay using S. salivarius.
From this example, it appears that the absence of a spore exosporium diminishes the bactericidal effect of Ramoplanin. Following enzyme digest and sonication of spore prep (Cortes et. al.) to removal the exosporium, the spores were exposed (027) to single dose of Ramoplanin (600 mcg/mL) vs water for 30 min and sampled (supernatant and prep) at 1 time point (T0).
Spore exosporia were removed as described by Escobar-Cortes et al. 2013. Proteases and sonication specifically remove the exosporium layer of spores of C. difficile strain 630. […] Briefly, spores were washed four times by centrifugation (10 minutes at 10,000×g) and resuspended in deionized water followed by final resuspension in 15 mL of PBS and sonicated for 90 seconds. Three mL of 10% Sarkosyl (detergent) were added to each preparation and subsequently incubated 15 minutes at room temperature with rocking. Preparations were then centrifuged for 10 minutes at 10,000×g, and pellets were resuspended in 10 mL PBS with 0.1 mL of 1M Tris and 10 mg of lysozyme. Spores were rocked overnight at 37±2° C. and then sonicated for 90 seconds, passed through a 50% solution of sucrose using a swinging bucket rotor for 20 minutes at 4,000×g, and resuspended in a solution containing 3 mL PBS, 200 mM EDTA, 300 ng/mL Proteinase K and 1% Sarkosyl. The spores were further rocked at room temperature for 20 minutes and were passed through a 50% solution of sucrose as previously described by Sabja et al, Id. Next, the spores were washed in deionized water by two centrifugation steps for 10 minutes at 10,000×g and resuspended in deionized water; plating and incubation were carried out as described in the foregoing text.
Adherence of ramoplanin to C. difficile exosporium: In order to determine whether the exosporium was essential to the observed growth-inhibiting effects of ramoplanin, the exosporia were processed as described in Escobar-Cortes et al, 2013, resulting in spores with “stripped” exosporia, and then compared to unprocessed spores (with “intact” exosporia) under three separate conditions (all ramoplanin concentrations were 300 μg/mL): (1) ramoplanin exposure with no subsequent spore processing (i.e., “intact”), (2) ramoplanin exposure with subsequent spore processing (i.e., “stripped”), and (3) water exposure with subsequent spore processing (FIG. 6). […] After ramoplanin exposure, the difference in spore counts between samples that were not processed (with presumed intact exposporia) and samples that were processed (without presumed exposporia) was significant (p<0.0001). No difference in spore count was noted when comparing processed spores that had been exposed to ramoplanin to spores exposed only to water (p=0.389).

[4] = test system: C. difficile spores (ribotype 027); assay: Longevity / persistence assay: 30 min ramoplanin exposure, six washes, storage in water to day 28, spore counts; format: cell-based, Clostridium difficile; details: for spore growth when plated undiluted: to day 28
Method: As above, C. difficile (027) was exposed to multiple doses of Ramoplanin (30 min/37 C) and to water, stored at 37 C (anaerobic), and sampled at days D0, D1 D7, D14, and D28. […] From each level at each time, three aliquots were taken (i.e. n=3 for each subsequent assay) and each washed 6 times before the spore resuspension. Each wash (100 only) and spore suspension (100, 10-1 10-2) were counted on NaTBA.

Cc1ncc([N+](=O)[O-])n1CCO [metronidazole]
spore counts on continuous exposure, compared to baseline ([1]; metronidazole 10 μg/mL): did not significantly reduce spore counts

CN[C@H](CC(C)C)C(=O)N[C@H]1C(=O)N[C@@H](CC(N)=O)C(=O)N[C@H]2C(=O)N[C@H]3C(=O)N[C@H](C(=O)N[C@H](C(=O)O)c4cc(O)cc(O)c4-c4cc3ccc4O)[C@H](O)c3ccc(c(Cl)c3)Oc3cc2cc(c3O[C@@H]2O[C@H](CO)[C@@H](O)[C@H](O)[C@H]2O[C@H]2C[C@](C)(N)[C@H](O)[C@H](C)O2)Oc2ccc(cc2Cl)[C@H]1O [vancomycin]
spore counts on continuous exposure, compared to baseline ([1]; vancomycin 500 μg/mL): did not significantly reduce spore counts

ramoplanin
persistence of bactericidal effect after washes ([2]; multiple washes (×6)): effect persists after multiple washes
exposure time giving maximal effect ([2]; no apparent difference in effect vs. time): 30 min
viability of ramoplanin-exposed spores when plated ([2]; ramoplanin 300 μg/mL (below fecal level), ribotype 027): non-viable
spore counts on continuous exposure ([1]; ramoplanin 300 μg/mL): no counts; also recorded: no growth
growth-inhibitory effect when exosporia were removed before or after exposure ([3]; after multiple washes): not present
spore counts, spores processed after exposure (stripped exosporia) ([3]; ramoplanin 300 μg/mL, exosporia removed after exposure): counts equivalent to water exposure
spore growth, unprocessed spores (intact exosporia) ([3]; ramoplanin 300 μg/mL, no subsequent spore processing): no measurable counts; also recorded: no growth
C. difficile recovery, spores stripped of the exosporium ([3]; ramoplanin 600 μg/mL, 30 min): high organism recovery
C. difficile recovery, spores with intact exosporium ([3]; ramoplanin 600 μg/mL, 30 min): non-recoverable C. difficile
organism recovery from 30 min after exposure and wash through day 28 ([4]; 30 min/37 C exposure, 6 washes, stored at 37 C anaerobic): no organisms are recoverable
inhibition of spore growth relative to controls ([4]; ramoplanin 2 μg/mL, 30 min exposure, over 28 days): no inhibition relative to controls
mean spore counts ±SEM over 28 days ([4]; ramoplanin 2 μg/mL, 30 min exposure, six washes): 2.3×10^4±4.6×10^2
spore counts after diluting samples 10× ([4]; ramoplanin 300 μg/mL and 600 μg/mL, 30 min exposure): growth not measurable at previous dilution; also recorded: spore counts similar to the 0 and 2 μg/mL exposed spores
spore growth when plated undiluted ([4]; ramoplanin 300 μg/mL, 30 min exposure, six washes): no counts; also recorded: no growth
spore growth when plated undiluted ([4]; ramoplanin 600 μg/mL, 30 min exposure, six washes): no counts; also recorded: no growth
